Source: US7781421B2, “Neuroactive 13, 24-cyclo-18, 21-dinorcholanes and structurally related pentacyclic steriods” (Washington University, priority 2003, dated 2010)

How the values were obtained:
Xenopus laevis tadpoles = test: Tadpole loss of righting (LRR) and swimming (LSR) reflexes; assay type: in vivo; conditions: 3 h equilibration at room temperature; for EC50: Xenopus laevis, 3 h, read-out: LSR EC50 (loss of swimming response)
Description: Tadpole LRR was measured as described previously. (See, Wittmer, L. L., et al., Enantioselectivity of steroid-induced γ-aminobutyric acidA receptor modulation and anesthesia, Mol. Phar., 1996, 50:1581-1586). Briefly, groups of 10 early prelimb-bud stage Xenopus laevis tadpoles (Nasco, Fort Atkinson, Wis.) were placed in 100 mL of oxygenated Ringer's stock solution containing various concentrations of compound. Compounds were added from a 10 mM DMSO stock (final concentration of DMSO in test solutions ≦0.1%). After equilibrating at room temperature for 3 h, tadpoles were evaluated using the LRR and LSR behavioral endpoints. LRR was defined as failure of the tadpole to right itself within 5 sec after being flipped by a smooth glass rod. LSR was defined as failure of the tadpole to swim when touched by a smooth glass rod. In general, the tadpoles regained their righting and swimming reflexes when placed in fresh oxygenated Ringer's solution. Control beakers containing up to 0.6% DMSO produced no LRR or LSR in tadpoles.
Tadpole LRR and LSR concentration-response curves were fit using Sigma Plot version 3.0 to the Hill equation f=Rmax/{1+([conc]/EC50)^n}
where Rmax is the maximum effect, [conc] is the steroid concentration, EC50 is the half-maximal effective concentration, and n is the Hill coefficient.

[1] = target: T1, rat α1β2γ2 GABAA Receptor (Rattus norvegicus, UniProt P18508+P62813+P63138, INS375LLRMFSFK); test: Xenopus oocyte two-electrode voltage-clamp electrophysiology; assay type: cell-based; conditions: for Oocyte electrophysiology, ratio of currents in presence/absence of compound, 0.1 μM: 0.1 μM compound co-applied with 2 μM GABA; for Oocyte electrophysiology, ratio of currents in presence/absence of compound, 0.1 μM / Oocyte electrophysiology, ratio of currents in presence/absence of compound, 1 μM / Oocyte electrophysiology, ratio of currents in presence/absence of compound, 10 μM: −70 mV; for Oocyte electrophysiology, ratio of currents in presence/absence of compound, 1 μM: 1 μM compound co-applied with 2 μM GABA; for Gating (10 μM), ratio of compound only current/2 μM GABA current: direct current gated by 10 μM compound in the absence of GABA; for Oocyte electrophysiology, ratio of currents in presence/absence of compound, 10 μM: 10 μM compound co-applied with 2 μM GABA
T1 construct: from linearized pBluescript vectors containing receptor coding regions; expressed in transfected cells; host or cells: Xenopus laevis oocytes injected with in vitro transcribed capped mRNA
T1 sequence (P62813 28-455, stated change not applied): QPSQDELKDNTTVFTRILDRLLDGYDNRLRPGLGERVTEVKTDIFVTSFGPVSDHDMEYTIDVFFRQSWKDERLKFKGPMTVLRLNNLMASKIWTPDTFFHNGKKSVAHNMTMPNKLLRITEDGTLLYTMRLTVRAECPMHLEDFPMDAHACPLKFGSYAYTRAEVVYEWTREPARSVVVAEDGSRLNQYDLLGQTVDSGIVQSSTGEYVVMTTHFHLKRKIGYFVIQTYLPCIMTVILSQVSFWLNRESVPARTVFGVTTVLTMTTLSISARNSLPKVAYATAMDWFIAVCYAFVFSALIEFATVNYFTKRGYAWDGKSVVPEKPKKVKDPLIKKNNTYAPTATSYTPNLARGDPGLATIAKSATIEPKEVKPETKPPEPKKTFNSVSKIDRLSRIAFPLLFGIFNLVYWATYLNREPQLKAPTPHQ
T1 sequence (P63138 26-474, stated change not applied): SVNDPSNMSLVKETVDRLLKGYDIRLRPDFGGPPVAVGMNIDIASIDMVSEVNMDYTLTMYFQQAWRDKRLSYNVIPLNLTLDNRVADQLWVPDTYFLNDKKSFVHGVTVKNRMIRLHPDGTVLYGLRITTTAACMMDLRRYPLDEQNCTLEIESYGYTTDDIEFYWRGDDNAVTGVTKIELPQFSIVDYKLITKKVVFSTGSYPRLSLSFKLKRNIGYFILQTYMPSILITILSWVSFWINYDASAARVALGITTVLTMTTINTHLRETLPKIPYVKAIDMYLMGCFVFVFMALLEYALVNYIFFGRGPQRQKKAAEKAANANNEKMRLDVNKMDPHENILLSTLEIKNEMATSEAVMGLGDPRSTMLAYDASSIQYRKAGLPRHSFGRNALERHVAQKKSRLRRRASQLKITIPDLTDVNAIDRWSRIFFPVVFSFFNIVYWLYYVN
T1 sequence (P18508 with tags, fused parts or gaps INS375LLRMFSFK): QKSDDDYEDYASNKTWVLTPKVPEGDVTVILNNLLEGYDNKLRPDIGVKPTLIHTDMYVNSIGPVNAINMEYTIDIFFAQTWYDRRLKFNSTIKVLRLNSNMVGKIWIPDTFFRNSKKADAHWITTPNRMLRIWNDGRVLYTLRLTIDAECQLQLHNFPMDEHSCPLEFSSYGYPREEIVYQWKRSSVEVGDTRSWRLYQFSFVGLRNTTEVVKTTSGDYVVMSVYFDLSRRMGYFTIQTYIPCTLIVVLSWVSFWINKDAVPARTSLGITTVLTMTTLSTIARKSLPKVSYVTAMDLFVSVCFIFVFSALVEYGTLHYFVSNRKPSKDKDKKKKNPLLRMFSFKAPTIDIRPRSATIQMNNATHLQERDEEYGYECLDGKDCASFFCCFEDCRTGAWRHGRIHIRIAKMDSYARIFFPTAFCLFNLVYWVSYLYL
Description: Stage V-VI oocytes were harvested from sexually mature female Xenopus laevis (Xenopus One, Northland, Mich.) under 0.1% tricaine (3-aminobenzoic acid ethyl ester) anesthesia. Oocytes were defolliculated by shaking for 20 min at 37° C. in collagenase (2 mg/ml) dissolved in calcium-free solution containing (in mM): 96 NaCl, 2 KCl, 1 MgCl2, and 5 HEPES at pH 7.4. Capped mRNA, encoding rat GABAA receptor α1, β2 and γ2L subunits was transcribed in vitro using the mMESSAGE mMachine Kit (Ambion, Austin, Tex.) from linearized pBluescript vectors containing receptor coding regions. Subunit transcripts were injected in equal parts (20-40 ng total RNA) 8-24 hours following defolliculation. Oocytes were incubated up to 5 days at 18° C. in ND96 medium containing (in mM): 96 NaCl, 1 KCl, 1 MgCl2, 2 CaCl2 and 5 HEPES at pH 7.4, supplemented with pyruvate (5 mM), penicillin (100 U/ml), streptomycin (100 μg/ml) and gentamycin (50 μg/ml). The cDNAs for the rat GABAA-receptor subunits were originally provided by A. Tobin, University of California, Los Angels (α1), P. Malherbe, Hoffman-La Roche, Switzerland (β2), C. Fraser, National Institute on Alcohol Abuse and Alcoholism (γ2L).
Two-electrode voltage-clamp experiments were performed with a Warner OC725 amplifier 2-5 days following RNA injection. The extracellular recording solution was ND96 medium with no supplements. Intracellular recording pipettes were filled with 3 M KCl and had open tip resistances of ˜1 MΩ. Drugs were applied from a common tip via a gravity-driven multibarrel drug-delivery system. Steroids were simultaneously co-applied with GABA. Cells were clamped at −70 mV for all experiments, and peak current during 20 s drug applications was measured. Data acquisition and analysis were performed with pCLAMP software (Axon Instruments, California). Statistical differences were determined using a two-tailed Student's t-test.
The GABA concentration used for the control response was 2 μM. Each compound was evaluated on at least four different oocytes at the concentrations indicated, and the results reported are the ratio of the currents measured in the presence/absence of added compound. (G) represents direct current gated by 10 μM compound in the absence of GABA, and this current is reported as the ratio of compound only current/2 μM GABA current. Error limits are calculated as standard error of the means.

[2] = target: GABAA receptor ([35S]-TBPS binding site, rat brain cortical membranes); test: Displacement of [35S]-TBPS binding, rat brain cortical membranes; conditions: 5 μM GABA, 2 nM [35S]-TBPS; ± standard error of the means
Description: Rat brain cortical membranes were prepared with minor modifications of the method previously reported. (Hawkinson, J. E., et al., Correlation of Neuroactive Steroid Modulation of [^35S]t-Butylbicyclophosophorothionate and [^3H]Flunitrazepam Binding and γ-Aminobutyric AcidA Receptor Function, Mol. Pharmacol., 1994, 46, 977-985). Briefly, frozen rat cerebral cortices (Pel-freez, Rogers, Ak.) were thawed and homogenized in 10 volumes of ice-cold 0.32 M sucrose using a glass/Teflon pestle. The homogenate was centrifuged at 1500×g for 10 min at 4° C. The resultant supernatant was centrifuged at 10,000×g for 30 min at 4° C. The pellet (P2) from this centrifugation was resuspended in 200 mM NaCl, 50 mM potassium phosphate buffer, pH 7.4, and centrifuged at 10,000×g for 20 min at 4° C. This washing procedure was done a total of three times, and then pellets were resuspended in buffer (˜4 mL/brain) using a glass/Teflon pestle. The membrane suspension was aliquoted, frozen in liquid nitrogen, and stored at −80° C. prior to use.
[^35S]-TBPS Binding assays were done according to the procedure described previously (Hawkinson, J. E., et al., Correlation of Neuroactive Steroid Modulation of [^35S]t-Butylbicyclophosophorothionate and [^3H]Flunitrazepam Binding and γ-Aminobutyric AcidA Receptor Function, Mol. Pharmacol., 1994, 46, 977-985) with modifications. Briefly, aliquots of membrane solution (0.5 mg/mL final protein concentration in assay) were incubated with 5 μM GABA, 2 nM [^35S]-TBPS (45-120 Ci/mmol), and 5 μL aliquots of steroid in DMSO solution (final assay concentrations ranged from 1 nM to 10 μM), and brought to a final volume of 1 mL with 200 mM NaCl, 50 mM potassium phosphate buffer, pH 7.4. […] Assay tubes were incubated for 2 hr at room temperature. A Brandel (Gaithersburg, Md.) cell harvester was used for filtration of the assay tubes through Whatman/GF/C glass filter paper. Filter paper was rinsed with 4 mL of ice-cold buffer three times. Radioactivity bound to the filters was read by liquid scintillation counter and data was fit using Sigma Plot version 3.0 to the Hill equation i. f=Rmax/{1+([conc]/IC50)^n}
Where Rmax is the maximal effect, [conc] is steroid concentration, IC50 is the half-maximal inhibitor concentration and n is the Hill coefficient. Each data point was determined in triplicate and 2-3 full concentration-response curves were generated for each steroid.

Compound | LRR ED50 (loss of righting response) (Xenopus laevis tadpoles) | EC50 (Xenopus laevis tadpoles) | Reversibility of steroid effect on GABA current (FIG. 1A) ([1]; 500 nM compound, 2 μM GABA, GABA recovery panel) | melting point | IC50 [2] | Oocyte electrophysiology, ratio of currents in presence/absence of compound, 0.1 μM [1] | Oocyte electrophysiology, ratio of currents in presence/absence of compound, 1 μM [1] | Gating (10 μM), ratio of compound only current/2 μM GABA current [1] | Oocyte electrophysiology, ratio of currents in presence/absence of compound, 10 μM [1] | LSR EC50 (loss of swimming response) (Xenopus laevis tadpoles)
CC(=O)[C@H]1CC[C@H]2[C@@H]3CC[C@H]4C[C@H](O)CC[C@]4(C)[C@H]3CC[C@]12C [Compound 1a, (3α,5α)-3-Hydroxypregnan-20-one, reference compound] | 420 ± 40 nM | 5500 ± 480 nM | readily reversible |  |  |  |  |  |  | 
CC(=O)[C@H]1CC[C@H]2[C@@H]3CC[C@@H]4C[C@H](O)CC[C@]4(C)[C@H]3CC[C@]12C [Compound 1b, (3α,5β)-3-Hydroxypregnan-20-one, reference compound] | 63 ± 3 nM | 300 nM |  |  |  |  |  |  |  | 
C[C@]12CC[C@@H](O)C[C@@H]1CCC1C3CC[C@@H]4C(=O)CCC[C@]34CCC12 (stereo partly drawn) [Compound 2a, (3α,5α)-3-Hydroxy-13,24-cyclo-18,21-dinorcholan-20-one] | 1360 ± 200 nM | 5450 ± 70 nM |  | 200 to 202 °C | 514 ± 64 nM | 1.01 ± 0.03 | 1.44 ± 0.03 | 0 ± 0.1 |  | 
C[C@]12CC[C@@H](O)C[C@H]1CCC1C3CC[C@@H]4C(=O)CCC[C@]34CCC12 (stereo partly drawn) [Compound 2b, (3α,5β)-3-Hydroxy-13,24-cyclo-18,21-dinorcholan-20-one] | 940 ± 550 nM | 5480 ± 80 nM |  | 220 to 222 °C | 1780 nM | 0.93 ± 0.06 | 1.12 ± 0.14 | −0.25 ± 0.21 | 1.51 ± 0.13 | 
C[C@]12CC[C@@H](O)C[C@@H]1CCC1C3CC[C@@H]4CC(=O)CC[C@]34CCC12 (stereo partly drawn) [Compound 3a, (3α,5α)-3-Hydroxy-13,24-cyclo-18,21-dinorcholan-22-one] | 2370 ± 470 nM |  |  | 195 to 197 °C | 1440 nM | 1.30 ± 0.15 | 1.61 ± 0.22 | 0.06 ± 0.06 | 2.93 ± 0.68 | None @ 10
CC12CCC(O)CC1CCC1C2CCC23CCC(=O)CC2CCC13 (stereo not drawn) [Compound 3b, (3α,5β)-3-Hydroxy-13,24-cyclo-18,21-dinorcholan-22-one] | 2470 ± 530 nM | 9430 ± 60 nM |  | 175 to 177 °C | 3230 nM | 0.97 ± 0.01 | 1.11 ± 0.14 | −0.10 ± 0.06 | 2.65 ± 0.33 | 
C[C@]12CC[C@@H](O)C[C@@H]1CCC1C3CCC4CCC(=O)C[C@@]43CCC12 (stereo partly drawn) [Compound 4a, (3α,5α)-3-Hydroxy-13,24-cyclo-18,21-dinorcholan-23-one] | 1120 ± 360 nM | 3580 ± 1080 nM |  | 185 to 186 °C | 334 ± 17 nM | 1.39 ± 0.38 | 1.64 ± 0.15 | 0.32 ± 0.01 | 6.49 ± 0.59 | 
C=C1CC[C@]23CCC4C(CC[C@H]5C[C@H](O)CC[C@]45C)C2CC[C@@H]3C1 (stereo partly drawn) [Compound 53, (3α,5α)-22-Methylene-13,24-cyclo-18,21-dinorcholan-3-ol] |  |  |  | 187 to 188 °C | 107000 ± 29600 nM |  |  |  | 1.05 ± 0.04 | 
